Measured values reported in the supplement of paper PMC10307832.

What was measured:
Experiment in all cases: relative viability (nuclei count vs DMSO), 5 days (fraction); higher = more cells survive
201T = tested on: 201T
Outline: (§1)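 A single step with final 0.05% Triton X-100, 1% formaldehyde and 1 ug/ml Hoechst fixed the cells and stained nuclei 5 days after treatment. Lung cancer cell lines in 1536-well plates had been treated by pin tool the day after seeding with one drug alone or a fixed anchor-drug dose plus five library-drug doses (not always all listed) in √10 steps, and nuclei were counted on 4× images. Relative viability is the ratio of nuclei in treated wells to nuclei in vehicle wells, taken as the median of duplicate plates.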

COR-L 105 = tested on: COR-L 105
Outline: as §1

ChaGo-K-1 = tested on: ChaGo-K-1
Outline: as §1

EKVX = tested on: EKVX
Outline: as §1

H3255 = tested on: H3255
Outline: as §1

HARA = tested on: HARA
Outline: as §1

HCC-827 = tested on: HCC-827
Outline: as §1

HOP-62 = tested on: HOP-62
Outline: as §1

LCLC-103H = tested on: LCLC-103H
Outline: as §1

LOU-NH91 = tested on: LOU-NH91
Outline: as §1

NCI-H1975 = tested on: NCI-H1975
Outline: as §1

NCI-H2126 = tested on: NCI-H2126
Outline: as §1

NCI-H2228 = tested on: NCI-H2228
Outline: as §1

NCI-H23 = tested on: NCI-H23
Outline: as §1

NCI-H2405 = tested on: NCI-H2405
Outline: as §1

NCI-H3122 = tested on: NCI-H3122
Outline: as §1

NCI-H596 = tested on: NCI-H596
Outline: as §1

NCI-H650 = tested on: NCI-H650
Outline: as §1

NCI-H661 = tested on: NCI-H661
Outline: as §1

NCI-H727 = tested on: NCI-H727
Outline: as §1

PC-3 [JPC-3] = tested on: PC-3 [JPC-3]
Outline: as §1

SK-LU-1 = tested on: SK-LU-1
Outline: as §1

SW 900 = tested on: SW 900
Outline: as §1

CN1CCN(CCOc2cc(OC3CCOCC3)c3c(Nc4c(Cl)ccc5c4OCO5)ncnc3c2)CC1 [Saracatinib] + CCNC(=O)c1noc(-c2cc(C(C)C)c(O)cc2O)c1-c1ccc(CN2CCOCC2)cc1 [Luminespib] (partner 0.01 µM)
relative viability (201T; first compound 0.02 µM): 1.05
relative viability (201T; first compound 0.2 µM): 0.956
relative viability (201T; first compound 0.6325 µM): 0.965
relative viability (201T; first compound 2 µM): 0.832
relative viability (COR-L 105; first compound 0.02 µM): 0.893
relative viability (COR-L 105; first compound 0.2 µM): 0.692
relative viability (COR-L 105; first compound 0.6325 µM): 0.608
relative viability (COR-L 105; first compound 2 µM): 0.467
relative viability (ChaGo-K-1; first compound 0.02 µM): 0.663
relative viability (ChaGo-K-1; first compound 0.2 µM): 0.388
relative viability (ChaGo-K-1; first compound 0.6325 µM): 0.7
relative viability (ChaGo-K-1; first compound 2 µM): 0.555
relative viability (EKVX; first compound 0.02 µM): 0.812
relative viability (EKVX; first compound 0.6325 µM): 0.883
relative viability (EKVX; first compound 2 µM): 0.532
relative viability (H3255; first compound 0.02 µM): 0.91
relative viability (H3255; first compound 0.2 µM): 0.914
relative viability (H3255; first compound 0.6325 µM): 0.745
relative viability (H3255; first compound 2 µM): 0.477
relative viability (HARA; first compound 0.02 µM): 0.686
relative viability (HARA; first compound 0.2 µM): 0.606
relative viability (HARA; first compound 0.6325 µM): 0.485
relative viability (HARA; first compound 2 µM): 0.367
relative viability (HCC-827; first compound 0.02 µM): 0.709
relative viability (HCC-827; first compound 0.2 µM): 0.311
relative viability (HCC-827; first compound 0.6325 µM): 0.241
relative viability (HCC-827; first compound 2 µM): 0.136
relative viability (HOP-62; first compound 0.02 µM): 0.864
relative viability (HOP-62; first compound 0.2 µM): 0.852
relative viability (HOP-62; first compound 0.6325 µM): 1.04
relative viability (HOP-62; first compound 2 µM): 1.02
relative viability (LCLC-103H; first compound 0.02 µM): 1.02
relative viability (LCLC-103H; first compound 0.2 µM): 0.902
relative viability (LCLC-103H; first compound 0.6325 µM): 0.975
relative viability (LCLC-103H; first compound 2 µM): 0.9
relative viability (LOU-NH91; first compound 0.02 µM): 0.356
relative viability (LOU-NH91; first compound 0.2 µM): 0.29
relative viability (LOU-NH91; first compound 0.6325 µM): 0.385
relative viability (LOU-NH91; first compound 2 µM): 0.286
relative viability (NCI-H1975; first compound 0.02 µM): 0.202
relative viability (NCI-H1975; first compound 0.2 µM): 0.243
relative viability (NCI-H1975; first compound 0.6325 µM): 0.182
relative viability (NCI-H1975; first compound 2 µM): 0.188
relative viability (NCI-H2126; first compound 0.02 µM): 0.878
relative viability (NCI-H2126; first compound 0.2 µM): 0.895
relative viability (NCI-H2126; first compound 0.6325 µM): 0.852
relative viability (NCI-H2126; first compound 2 µM): 0.655
relative viability (NCI-H2228; first compound 0.02 µM): 0.157
relative viability (NCI-H2228; first compound 0.2 µM): 0.167
relative viability (NCI-H2228; first compound 0.6325 µM): 0.0897
relative viability (NCI-H2228; first compound 2 µM): 0.116
relative viability (NCI-H23; first compound 0.02 µM): 0.247
relative viability (NCI-H23; first compound 0.2 µM): 0.193
relative viability (NCI-H23; first compound 0.6325 µM): 0.196
relative viability (NCI-H23; first compound 2 µM): 0.219
relative viability (NCI-H2405; first compound 0.02 µM): 0.588
relative viability (NCI-H2405; first compound 0.2 µM): 0.525
relative viability (NCI-H2405; first compound 0.6325 µM): 0.519
relative viability (NCI-H2405; first compound 2 µM): 0.271
relative viability (NCI-H3122; first compound 0.02 µM): 0.0855
relative viability (NCI-H3122; first compound 0.2 µM): 0.103
relative viability (NCI-H3122; first compound 0.6325 µM): 0.0549
relative viability (NCI-H3122; first compound 2 µM): 0.076
relative viability (NCI-H596; first compound 0.02 µM): 1.01
relative viability (NCI-H596; first compound 0.2 µM): 0.74
relative viability (NCI-H596; first compound 0.6325 µM): 0.84
relative viability (NCI-H596; first compound 2 µM): 0.715
relative viability (NCI-H650; first compound 0.02 µM): 0.685
relative viability (NCI-H650; first compound 0.2 µM): 0.613
relative viability (NCI-H650; first compound 0.6325 µM): 0.87
relative viability (NCI-H650; first compound 2 µM): 0.68
relative viability (NCI-H661; first compound 0.02 µM): 0.948
relative viability (NCI-H661; first compound 0.2 µM): 0.921
relative viability (NCI-H661; first compound 0.6325 µM): 0.943
relative viability (NCI-H661; first compound 2 µM): 0.771
relative viability (NCI-H727; first compound 0.02 µM): 0.242
relative viability (NCI-H727; first compound 0.2 µM): 0.316
relative viability (NCI-H727; first compound 0.6325 µM): 0.266
relative viability (NCI-H727; first compound 2 µM): 0.239
relative viability (PC-3 [JPC-3]; first compound 0.02 µM): 0.732
relative viability (PC-3 [JPC-3]; first compound 0.2 µM): 0.655
relative viability (PC-3 [JPC-3]; first compound 0.6325 µM): 0.675
relative viability (PC-3 [JPC-3]; first compound 2 µM): 0.537
relative viability (SK-LU-1; first compound 0.02 µM): 0.232
relative viability (SK-LU-1; first compound 0.2 µM): 0.139
relative viability (SK-LU-1; first compound 0.6325 µM): 0.145
relative viability (SK-LU-1; first compound 2 µM): 0.129
relative viability (SW 900; first compound 0.02 µM): 0.187
relative viability (SW 900; first compound 0.2 µM): 0.152
relative viability (SW 900; first compound 0.6325 µM): 0.176
relative viability (SW 900; first compound 2 µM): 0.151
